Laboratory results reported in article PMC9598407, “Identification of Staphylococcus aureus Penicillin Binding Protein 4 (PBP4) Inhibitors” (Antibiotics, 2022).
“Also recorded” adds a separate entry of the source.

What was measured:
Assay type in all cases: cell-based, Staphylococcus aureus
S. aureus USA300 = assay: µSiM-CA membrane transmigration
Procedure: Thus, we tested 9314848 for its ability to eliminate S. aureus migration through µSiM-CA membrane pores. […] Conversely, the USA300∆pbp4 strain was unable to efficiently transverse the membrane, verifying that PBP4 is required for S. aureus membrane transmigration, as previously reported. To evaluate whether 9314848 is capable of eliminating PBP4-associated S. aureus µSiM-CA membrane migration, 1 × 10^7 CFU wild type cells were incubated with 0, 3.125, 6.25, 12.5, or 25 µM of the compound for 2 h then applied to the top chamber of the device. Following incubation, cells in the top and bottom chambers were enumerated.
The effect of PBP4 inhibitors on S. aureus migration through 500 nm nanoporous membranes modeling the orifices of osteocyte lacuno-canalicular networks was investigated using a µSiM-CA device, as previously described. Briefly, µSIM-CA systems were fabricated by SiMPore Inc. (West Henrietta, NY, USA) to include a top and a bottom chamber that were separated by 400 nm thick silicon nitride membrane containing an array of 500 nm pores, allowing for quantification of bacteria that migrate from the apical (top) well to the basal (bottom) well. To measure bacterial migration through the device membrane, S. aureus strains USA300 or USA300∆pbp4 were grown overnight at 37 °C with aeration, diluted (1:100) in fresh MH media, and then grown to mid-exponential phase (OD600nm = 0.2) in the presence or absence of putative PBP4 inhibitor for approximately 2 h at 37 °C shaking with aeration. A total of 100 µL of cell mixture (~1 × 10^7 CFU) was transferred into the top reservoir of the device and incubated for 6 h at 37 °C. A total of 10 µL of media from the apical and basal reservoirs was collected, serial diluted in 0.8% NaCl, and plated on MH agar plates for bacterial enumeration.

[1] = test system: S. aureus strain CRB∆pbp4; assay: Fractional inhibitory concentration checkerboard, ceftobiprole + putative PBP4 inhibitor, strain CRB∆pbp4
[2] = test system: pbp4 expression in S. aureus CRB; assay: qRT-PCR of pbp4 transcript titers, CRB; settings: 25 µM compound, 3 h
From the text: (§1) Given that each of the six compounds appeared to affect PBP4-mediated antibiotic resistance, we considered that their effects may be modulated by either inhibiting the protein’s function or by reducing pbp4 expression, the latter of which may be readily overcome by regulatory mutations that could in-turn easily result in resistance. Thus, we sought to prioritize compounds that may affect the protein’s function and de-prioritize compounds that affect the protein’s expression. Quantitative real-time reverse transcriptase PCR (qRT-PCR) was used to measure the pbp4 transcript titers within USA300 and CRB cells following compound treatment (Figure 2). […] We chose to focus the remainder of our studies on 9314848 (Figure 3A) because the molecule appeared the more druggable and chemically tractable for downstream structure activity relationship studies.
(§2) PBP4 transcript titers of bacterial cells exposed to putative PBP4 inhibitors were measured using real time quantitative PCR (RT-qPCR), as previously described. […] Bacterial RNA was amplified and measured using PerfeCTa SYBR Green FastMix and qScript cDNA SuperMix kits following the manufacturer’s recommendations (QuantaBio, Beverly, MA, USA). […]

S. aureus strain CRB = assay: Fractional inhibitory concentration checkerboard, ceftobiprole + putative PBP4 inhibitor, strain CRB
Procedure: Fractional inhibitory testing was performed in checkerboard format to determine whether putative PBP4 inhibitors potentiated the antimicrobial effects of β-lactams toward S. aureus strains USA300 and CRB, as previously described. To do so, in triplicate 10^5 CFU of each strain (10 µL) was added to individual wells of a microtiter plate containing 90 µL MH media. […] Plates were incubated at 37 °C for 16–20 h and the lowest concentration of each test agent that inhibited bacterial growth alone or in combination was determined by the naked eye. The fractional inhibitory concentration (FIC) index was calculated using the formula: FIC of A (MIC of drug A in combination/MIC of drug A alone) + FIC B ([…]/MIC of drug B alone). A synergistic interaction was defined as a FICI value of less than 0.5, an additive interaction was defined as a FICI value between 0.5 and 1.0, an indifferent interaction was defined as a FICI value between 1.0 and 4.0, and an antagonistic interaction was defined as a FICI value of more than 4.0 [46].

[3] = test system: pbp4 expression in S. aureus USA300; assay: qRT-PCR of pbp4 transcript titers, USA300; settings: 25 µM compound, 3 h
From the text: as §1, §2

CC1CCN(C(=O)c2cccc(NC(=O)Nc3ccc(Cl)cc3)c2)CC1 [Compound 9314848]
Viability of cells within the top/treatment chamber (S. aureus USA300; 0-25 µM compound): did not affect the viability
Effect on S. aureus membrane transmigration (S. aureus USA300; concentrations greater than 6.25 µM (2.5 µg/mL)): completely inhibited
Effect on S. aureus membrane transmigration (S. aureus USA300; ≤3.125 µM): no effect
MIC ([1]; Staphylococcus aureus, read-out: CRB∆pbp4 Alone Cmpd (putative PBP4 inhibitor MIC alone)): 400 µM
CRB∆pbp4 Combination BPR (ceftobiprole MIC in combination) ([1]; strain CRB∆pbp4, ceftobiprole combined with the indicated putative PBP4 inhibitor): 0.125 µg/mL
CRB∆pbp4 Combination Cmpd (compound concentration in combination) ([1]; strain CRB∆pbp4, compound combined with ceftobiprole): 25 µM
CRB∆pbp4 Fold-decrease in ceftobiprole resistance in combination ([1]; strain CRB∆pbp4, in combination with the indicated putative PBP4 inhibitor): 2 fold
pbp4 expression (mRNA titer, qRT-PCR) [2]: did not seem to affect pbp4 expression; also recorded: did not significantly impact pbp4 transcription
MIC (S. aureus strain CRB; Staphylococcus aureus, read-out: CRB Alone Cmpd (putative PBP4 inhibitor MIC alone)): 400 µM
CRB Combination BPR (ceftobiprole MIC in combination) (S. aureus strain CRB; strain CRB, ceftobiprole combined with the indicated putative PBP4 inhibitor): 8 µg/mL
CRB Combination Cmpd (compound concentration in combination) (S. aureus strain CRB; strain CRB, compound combined with ceftobiprole): 25 µM
CRB Fold-decrease in ceftobiprole resistance in combination (S. aureus strain CRB; strain CRB, in combination with the indicated putative PBP4 inhibitor): 16 fold
pbp4 expression (mRNA titer, qRT-PCR) [3]: did not seem to affect pbp4 expression; also recorded: did not significantly impact pbp4 transcription
